Test system: U-251 MG cell line
Assay: % cell proliferation of U-251 MG cell line after 72 h with non-encapsulated and encapsulated 3PO
Format: cell-based
Conditions: U-251 cells, inhibitor concentration 5 μM
Method: FIG. 5. % Cell proliferation of the U-251 MG cell line, after 72 h, using various concentrations of the non-encapsulated and encapsulated (UHT-CMNPs) model drug 3PO.
The ability of the F-CMNPs to act as drug delivery systems was also studied. […] As a proof of concept, we loaded the glucose inhibitor (2E)-3-(3-Pyridinyl)-1-(4-pyridinyl)-2-propen-1-one (3PO) in the F-CMNPs.

O=C(/C=C/c1cccnc1)c1ccncc1 [3PO, (2E)-3-(3-Pyridinyl)-1-(4-pyridinyl)-2-propen-1-one]
reduction of cells' proliferation: not affecting

— patent publication US20230364019A1, “Multi-targeting cell-derived nanoparticles as a versatile theranostic” (Fondazione Istituto Italiano di Tecnologia, priority 2020, published 2023)
